Results published in PubChem BioAssay AID652047 (Broad Institute, 2013).
Values joined by “and” are separate entries in the source; they are usually repeats but may differ in a detail not shown here. Equal entries are not always repeated.

System: P. falciparum 3D7 in RBCs, SYBR Green DNA fluorescence
Assay: growth inhibition of P. falciparum 3D7, dose response, 3D7 strain, red blood cells, SYBR Green, cherry-picked (AID 652047)

Row | Structure (SMILES) | AC35
1 | CC(=O)C1=C(c2ccc(Br)cc2)C(=O)c2ccccc2C1=O | 0.82 µM
2 | Oc1c(CN2CCCC2)cc(COCc2ccccc2)c2cccnc12 | 13.8 µM
3 | O=C(O)c1ccccc1NC(c1ccccc1)c1ccc2cccnc2c1O (configuration not stated) | 10.8 µM
4 | O=c1c2ccccc2nc(-c2ccc(-c3ccccc3)cc2)n1-c1ccncc1 | 3.6 µM
5 | CCC(NC(=S)NCc1ccc(F)cc1)c1ccc(C(C)C)cc1 (configuration not stated) | 11.8 µM
6 | CC1=CC(C)(C)N(S(=O)(=O)c2ccc(C)cc2)c2ccc(C)cc21 | 22.3 µM
7 | CNc1ccc2oc(C[C@H]3O[C@@]4(CC[C@H]3C)O[C@H]([C@H](C)C(=O)c3ccc[nH]3)[C@H](C)C[C@H]4C)nc2c1C(=O)O | 1.01 µM
8 | O=C(Nc1nnc(-c2ccccc2)o1)c1ccc(Cl)cc1 | 12.4 µM
9 | COc1cnc(-c2ccccn2)nc1Oc1ccc(C(C)(C)C)cc1 | 2.05 µM
10 | S=C(Nc1ccc(Oc2ccccc2)cc1)NC1CCCCCC1 | 12.7 µM
11 | Cc1ccc(-n2nnnc2SCC(=O)N2CCc3ccccc3C2)c(C)c1 | 30.7 µM
12 | COc1ccc(C(=O)On2c(-c3ccc(Br)cc3)nc3ccccc3c2=O)cc1 | 5.71 µM
13 | Cc1ccc(O)c(-c2cc(-c3ccccc3C)[nH]n2)c1 | 10.8 µM
14 | O=C(Nc1ccc(Cl)cc1C(=O)Nc1ccc(Br)cn1)c1ccco1 | 15.1 µM
15 | C=CCNc1nc(-c2ccccn2)nnc1-c1ccccc1 | 1.21 µM
16 | CN(C)c1ccc(C=c2c3ccccc3n3c2c2c([n+]3C)CCCC2)cc1 | 0.15 µM
17 | O=c1c(O)c(-c2ccccc2)oc2ccccc12 | 31.1 µM
18 | Cc1ccccc1Oc1nc(-c2ccccn2)nc2ccccc12 | 2.17 µM
19 | Cc1ccsc1/C=C/c1ccc2cccc(O)c2n1 | 14.2 µM
20 | Cn1ccc(=Nc2ccc(NC(=O)c3ccc(N=c4ccn(C)c5ccc([N+](=O)[O-])cc45)cc3)cc2)cc1 | 0.0417 µM
21 | CC(C)N1CCN(c2ccc(OC[C@H]3CO[C@](Cn4cncn4)(c4ccc(Cl)cc4Cl)O3)cc2)CC1 | 5.3 µM
22 | CCCC(C)Sc1nc2c([nH]1)c(=S)n(C)c(=O)n2C (configuration not stated) | 4.74 µM
23 | O=C(COc1ccccc1F)Nc1nc(-c2ccccn2)cs1 | 10.5 µM
24 | Cc1ccc2oc(-c3ccccc3)c(C(=O)O)c(=O)c2c1 | 16.2 µM

Row | Structure (SMILES) | AC35
25 | O=[N+]([O-])c1ccc2c(OCc3nnc(-c4ccccc4Br)o3)ncnc2c1 | 25.5 µM
26 | CCc1cc(SC#N)cc(C)c1NC(=O)CCl | 7.77 µM
27 | CCN(CC)C(=O)CSc1ncnc2sc(-c3ccccc3)cc12 | 35.6 µM
28 | CCN1C(=O)C(CC(=O)Nc2ccccc2Cl)N(NC(=O)c2cccc(F)c2)C1=S (configuration not stated) | 21.2 µM
29 | Cc1cc(C(=O)COC(=O)Cc2n[nH]c(=O)c3ccccc23)c(C)n1-c1cccc(C(F)(F)F)c1 | 6.57 µM
30 | CCOC(=O)c1cc2c(=Cc3ccc(N(C)C)cc3)c3ccccc3n2[n+]1C | 1.94 µM
31 | COc1ccc(/C=N/Nc2cc(C)nc(-n3nc(C)cc3C)n2)cc1 | 1.06 µM
32 | CCOC(=O)c1cnc(-n2nc(C)cc2C)nc1NC1CCCC1 | 2.6 µM
33 | CN(C)c1ccc(C=c2c3cc(O)ccc3n3c2cc(-c2ccccc2)[n+]3C)cc1 | 0.127 µM
34 | CN(Cc1ccc(Cl)s1)C(=O)CCl | 1.69 µM
35 | COc1cnc(-c2ccccn2)nc1Sc1ccc(C)cc1 | 1.73 µM
36 | O=C(N/N=C/c1ccc[nH]1)c1sc2ccccc2c1Cl | 8.77 µM
37 | CN1CCN(C(=O)c2cc(COc3ccc(F)cc3Cl)on2)CC1c1ccccc1 (configuration not stated) | 38.8 µM
38 | Cc1cc(C)c(C(=O)CC(=O)c2cccnc2)c(C)c1 | 6.77 µM
39 | NC(=O)N=Nc1c2[nH]c3ccccc3nc-2c2ccccc12 | 10.7 µM
40 | Cc1cc(-c2ccccc2)n(-c2cc(N/N=C/c3ccccc3O)ncn2)n1 | 3.99 µM
41 | O=C(c1ccc(-c2ccccc2)cc1)C1CCCN(C(=O)c2cncs2)C1 (configuration not stated) | 9.45 µM
42 | C=C(C)COc1ccc(-c2[nH]ncc2-c2ccccc2)c(O)c1 | 2.91 µM
43 | Cc1oc2c(c1C(=O)c1ccccc1)C(=O)C(=O)c1ccccc1-2 | 3.23 µM
44 | Oc1ccc(N=Nc2ccc3c(c2)OCCO3)c2cccnc12 | 0.706 µM
45 | CCC(=O)NC(c1ccco1)c1cc(Cl)c2cccnc2c1O (configuration not stated) | 0.484 µM
46 | C=CCN(CC=C)C(=S)NC(=O)c1ccc(C)c(Br)c1 | 6.98 µM
47 | COc1cccc(/C=N/Nc2ncnc(Cl)c2N)c1O | 0.896 µM
48 | C=C(C)COc1ccc(-c2[nH]ncc2-c2ccc(Br)cc2)c(O)c1 | 3.55 µM

Row | Structure (SMILES) | AC35
49 | CCc1ccc(CN(C)C(=O)c2cc(COc3cccc(C(F)(F)F)c3)on2)nc1 | 24.6 µM
50 | CCCS(=O)(=O)c1c(S(=O)(=O)CCC)c2c(C)cccn2c1C(=O)N/N=C/c1cc(O)cc(O)c1 | 8.14 µM
51 | O=C(CCCSc1ccccc1)Nc1nc(-c2ccccn2)cs1 | 6.69 µM
52 | O=C(NCCC1=CCCCC1)c1c(O)nc2sccn2c1=O | 17 µM
53 | CC(=O)Oc1ccc(OC(C)=O)c(SCCCCCCl)c1 | 4.82 µM
54 | CC(C)(C)C(=O)C(Oc1ccc(Cl)cc1)n1cncn1 (configuration not stated) | 36.6 µM
55 | COc1cccc(/C=N/Nc2ncnc3scc(-c4ccccc4)c23)c1O | 1.91 µM
56 | CCN(CC)c1ccc(/C=N/NC(=O)c2c(Cl)cnn2C)c(O)c1 | 3.27 µM
57 | C(=C1c2ccccc2-c2ccccc21)c1ccncc1 | 12.1 µM
58 | CCCCCCCc1ccc(-c2ccc(O)cc2)nc1 | 7.43 µM
59 | Cc1ccc(NS(=O)(=O)c2ccc(N3CCN(c4ccc(O)cc4)CC3)c([N+](=O)[O-])c2)c(C)c1 | 17.2 µM
60 | CC12CC3(C)CC(C)(C1)CC(NC(=O)N1CCCC1)(C2)C3 | 22.2 µM
61 | CC(C)N1CCN(c2ccc(OCC3COC(Cn4cncn4)(c4ccc(Cl)cc4Cl)O3)cc2)CC1 (configuration not stated) | 3.77 µM
62 | O=C1c2cc(F)ccc2-n2c1nc1ccccc1c2=O | < 0.0235 µM
63 | O=C1c2ccccc2-n2c1nc1ccccc1c2=O | 0.181 µM
64 | CN(C)c1nc(SCc2ccc(Cl)cc2)nc2c1CCCC2 | 40.2 µM
65 | Clc1ccccc1C(c1ccccc1)(c1ccccc1)n1ccnc1 | 0.448 µM
66 | C[n+]1c2cc(N)ccc2cc2ccc(N)cc21 | 0.0327 µM
67 | CCCCNc1c(-c2cccc(Sc3ccc(OC)cc3)c2)nc2ccccn12 | 15.3 µM
68 | Cc1[nH]n(-c2ccccc2)c(=O)c1/C=N/Nc1nncc(-c2ccccc2)n1 | 1.2 µM
69 | Cc1ccc(NC(=O)CN(C)C(=O)c2cccnc2Nc2cccc(C(F)(F)F)c2)cc1 | 7.58 µM
70 | Cc1ccc(Sc2ccc(NC(=O)CCl)cc2)cc1C | 0.422 µM
71 | CC/C(=N/NC(=O)c1ccccc1O)c1c(C)[nH]n(-c2ccccc2)c1=O | 34.9 µM
72 | Cc1ccc(Sc2cc(C)nc(-c3ccccn3)n2)cc1 | 3.19 µM

Row | Structure (SMILES) | AC35
73 | Clc1ccc(C2=NCCN2)cc1 | 5.64 µM
74 | Cc1csc(NC(=O)C(C)Oc2ccc(Cl)cc2C)n1 (configuration not stated) | 38.3 µM
75 | Cc1c(Cc2ccccc2)c(NCCN(C)C)n2c(nc3ccccc32)c1C#N | 7.32 µM
76 | CC(NC(=S)NC1CCC(C(C)(C)C)CC1)c1ccccc1 (configuration not stated) | 10.2 µM
77 | Clc1ccc(C(Cn2ccnc2)OCc2c(Cl)cccc2Cl)c(Cl)c1 (configuration not stated) | 2.76 µM
78 | Cc1ccccc1C(=O)NNC(=S)NC(=O)c1ccc(Cl)cc1Cl | 41.1 µM
79 | O=C(/C(=N/N=C/c1ccc(O)c(O)c1O)c1ccccc1)c1ccccc1 | 4.96 µM
80 | Cc1cccc(Oc2nc(-c3ccccn3)nc3ccccc23)c1 | 3.89 µM
81 | O=[N+]([O-])c1cc(C(F)(F)F)ccc1NCCc1c[nH]c2ccc(O)cc12 | 28.3 µM
82 | CC1CCc2c(C(=O)Nc3ccccn3)csc2C1 (configuration not stated) | 28.7 µM
83 | Cc1cccc(N2CCN(C(=O)C3COc4ccccc4O3)CC2)c1C (configuration not stated) | 34.3 µM
84 | Oc1ccc(/C=N/Nc2ccc(C(F)(F)F)cn2)c(O)c1 | 5.21 µM
85 | O=C1c2cccc(Cl)c2C(=O)c2c1cccc2N1CCCC1 | 22.7 µM
86 | CCCCCCCn1c(=O)c(C(=O)OC)c(N)c2ccccc21 | 13.6 µM
87 | O=C(Nc1ccc(Br)c(C(F)(F)F)c1)c1ccccc1 | 20 µM
88 | CCc1ccc(OCc2n[nH]c(=S)n2Cc2ccccc2)cc1 | 32 µM
89 | O=C(CN1CC[n+]2c(-c3cccs3)csc21)c1ccc(-c2ccccc2)cc1 | 2.39 µM
90 | S=C(NCc1ccco1)Nc1ccc(Oc2ccc(Cl)cc2)cc1 | 24 µM
91 | Cc1cccc(Nc2nc(-c3ccc(O)cc3O)cs2)n1 | 20.3 µM
92 | Clc1ccc(COC(Cn2ccnc2)c2ccc(Cl)cc2Cl)c(Cl)c1 (configuration not stated) | 1.2 µM and 1.52 µM
93 | CCCCNC(=S)N/N=C1\CCCCc2ccccc21 | 18.3 µM
94 | COc1cc2cnc(-c3ccccc3)c(C(=O)c3ccc(F)cc3)c2cc1OC | 34.4 µM
95 | Cc1cccc2sc(NNC(=O)c3ccc(S(=O)(=O)N4CCCC(C)C4)cc3)nc12 (configuration not stated) | 3.46 µM
96 | Cn1nc(C(F)(F)F)c(C#N)c1N1CCN(c2ccc(F)cc2)CC1 | 41.9 µM

Row | Structure (SMILES) | AC35
97 | COc1cccc(/C=N/NC(=O)c2nc(-c3ccccc3)cc(-c3ccccc3)n2)c1O | 6.29 µM
98 | O/N=C(\c1ccc(Cl)cc1Cl)c1ncc(C(F)(F)F)cc1Cl | 16.9 µM
99 | CCCOc1ccc(S(=O)(=O)n2cc(F)c(=O)[nH]c2=O)cc1 | 30.4 µM
100 | CC(=O)NC(c1ccc(C)cc1)c1cc([N+](=O)[O-])c2cccnc2c1O (configuration not stated) | 10.1 µM
101 | O=C(Oc1c(Cl)cc(Cl)c2cccnc12)c1cccs1 | 17.7 µM
102 | Cc1ccc(-c2c3c(nc4sc(C(N)=O)c(N)c24)CCCC3)o1 | 42.6 µM
103 | CC(=O)C1=C(c2cccc([N+](=O)[O-])c2)N(C(C)=O)n2c(C)nnc2S1 | 0.836 µM
104 | O=C(COc1ccc([N+](=O)[O-])cc1)Nc1nc(-c2ccccn2)cs1 | 6.63 µM
105 | Cc1ccc(C)c(/C=C/C(=O)c2ccccc(=O)c2O)c1 | 7.91 µM
106 | CC1(C(=O)OCC(=O)Nc2ccc3ccccc3c2)CC1(Cl)Cl (configuration not stated) | 42.6 µM
107 | CCCCCOc1ccc(CSc2n[nH]c(C)n2)cc1 | 18.6 µM
108 | CCC(C)c1ccc(NC(=S)NCCn2cc(Br)cn2)cc1 (configuration not stated) | 13.9 µM
109 | COc1ccc(O)c(C(=O)CC(=O)c2ccccc2C)c1 | 8.89 µM
110 | CCC(C)n1ncn(-c2ccc(N3CCN(c4ccc(OCC5COC(Cn6cncn6)(c6ccc(Cl)cc6Cl)O5)cc4)CC3)cc2)c1=O (configuration not stated) | 4.24 µM
111 | O=[N+]([O-])c1ccc(Sc2cccc[n+]2[O-])c2nonc12 | 0.657 µM
112 | COc1ccc(N=N/C(=C\O)C(=O)c2cccs2)cc1 | 7.16 µM
113 | O=C(NCc1ccncc1)c1ccccc1Nc1ccc(SC(F)F)cc1 | 21.1 µM
114 | CN(C)c1nc(-c2ccccn2)nnc1-c1ccccc1 | 1.13 µM
115 | Cc1ccc(Nc2cc(C)nn2-c2nc(C)cc(C)n2)cc1 | 2.38 µM
116 | CC1(C)C=Cc2c(ccc3c2OC[C@@H](c2ccc(O)cc2O)C3)O1 | 17.8 µM
117 | Cc1nc2ccc(C(C(F)(F)F)(C(F)(F)F)C(F)(F)F)cc2[nH]1 | 17.8 µM
